Biological target: T1, Adenosine deaminase (ADA) (Bos taurus, UniProt P56658)
T1 sequence (P56658 2-363): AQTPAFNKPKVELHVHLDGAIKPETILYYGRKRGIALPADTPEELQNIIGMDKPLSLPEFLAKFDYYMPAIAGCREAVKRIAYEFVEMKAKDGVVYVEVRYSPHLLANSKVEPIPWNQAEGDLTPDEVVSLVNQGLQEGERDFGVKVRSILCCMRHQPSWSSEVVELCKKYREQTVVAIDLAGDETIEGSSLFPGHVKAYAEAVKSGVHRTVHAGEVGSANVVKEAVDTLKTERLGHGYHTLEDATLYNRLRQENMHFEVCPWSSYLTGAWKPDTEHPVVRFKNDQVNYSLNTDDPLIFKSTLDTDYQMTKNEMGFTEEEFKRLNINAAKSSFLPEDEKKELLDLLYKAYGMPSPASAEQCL
Assay: biochemical

CCCCCC[C@@H]([C@@H](C)O)n1cnc2c(N)ncnc21 (racemic) [EHNA, erythro-9-(2-hydroxy-3-nonyl)adenine]
IC50: 64 nM
